Experimental data: patent publication US8071777B2, “Compounds derived from artesunate, preparation process, pharmaceutical composition and use of the respective medicine” (Fundação Oswaldo Cruz - FIOCRUZ, priority 2004, dated 2011)
Converted amounts (≈) assume the structure as drawn. “And” between values parts separate entries of the source, which are not always exact repeats. Identical values can stand only once. Like-named read-outs stand apart in the source and are kept apart here.

Tests used:
Plasmodium berghei = test: Antimalarial activity in vivo in mice infected with Plasmodium berghei NK 65, oral treatment for 4 days; settings: for Average parasitaemia (%) ± SD on day 5 / Average parasitaemia (%) ± SD on day 7: 12 mg/kg via oral for 4 days in sequence, mice infected by Plasmodium berghei; for Average parasitaemia (%) ± SD on day 5: day 5 of infection; for Average parasitaemia (%) ± SD on day 7: day 7 of infection; for Cumulative mortality on day 10 of infection / Cumulative mortality on day 19 of infection / Cumulative mortality on day 23 of infection / Cumulative mortality on day 35 of infection / Cumulative mortality on day 48 of infection: 5 mice in each group; for % Inhibition of parasitaemia on day 5: day 5, in relation to the group control not treated; for % Inhibition of parasitaemia on day 7: day 7, in relation to the group control not treated; for Suppression of the acute parasitaemia of treated animals: evaluations on the 5th and 7th day after the infection; for Parasitaemia at late follow-up: negative or recrudescence: new blood samples days 30 to 48
Experimental: To evaluate the antimalarial activity the following tests were carried out in different experiments in vivo using groups of Swiss female albino mice, weighing between 18 and 22 g. These mice were innoculated with 100,000 red cells infected with strain NK 65 of Plasmodium berghei (cause of malaria in rodents) according to the scheme previously proposed (Peters et al., Annals of Tropical Medicine and Parasitology, 1993, 87, 547). After inoculating the parasite via intraperitoneal, the animals were divided at random into groups of five. The treatment of the mice were initiated the day after the inoculation, for 4 days in sequence, applying samples “A”, “B” e “C” administered via oral. The different groups of mice, represented by groups treated and not treated (group control) were kept in the same conditions, in polyacetylene cages, water and ration was offered ad libitum. A group was treated with chloroquine, an antimalarial of reference. The development of the infection was verified in all groups through blood samples collected for parasitaemia on the 5th and 7th day after the infection, and the parasitaemia was measured based on double blind tests, in codified slides, in order to minimize occasional bias.
(§1) Not only in vivo but also in vitro, the activity of drugs was evaluated in relation to the group control without any drugs.

P. falciparum (W2) = test: Antimalarial activity in vitro against P. falciparum cultivated in red cells, 72 hours; format: cell-based; settings: for IC50: Plasmodium falciparum
Experimental: The tests in vitro to evaluate the antimalarial activity were carried out with P. falciparum cultivated in red cells in 10% of human serum, in slabs of 96 wells, using Rieckman et al's traditional method, modified by Carvalho et al. Braz J. Med. Biol. Research, 1991. The parasites were incubated for 72 hours in culture medium having samples “A”, “B” and “C” in different dilutions in ideal atmospherical conditions at 37° C.; drugs and the culture medium was changed every 24 hours. After this period, blood samples were collected for evaluation of the activity of each compound. As to control wells with complete culture medium were maintained, but with no addition of drugs, and wells in which chloroquine was present in different tested concentrations in triplicate.
as §1

[1] = 12 mg/kg via oral for 4 days, day 48
[2] = P. falciparum (W2) in vitro, Experiment 1, approximated
[3] = P. falciparum (W2) in vitro, Experiment 2, approximated
[4] = W2, read-out: Inhibiting concentration (IC) 50%, Experiment 1
[5] = W2, read-out: Inhibiting concentration (IC) 50%, Experiment 2

CC1CCC2C(C)C(OC(=O)CCC(=O)O)OC3OC4(C)CCC1C32OO4.OC(c1cc(C(F)(F)F)nc2c(C(F)(F)F)cccc12)C1CCCCN1 (stereo not drawn) [A, salt of artesunate and mefloquine]
Cure of malaria in treated animals (Plasmodium berghei; 12 mg/kg via oral for 4 days): the cure of malaria was observed | Average parasitaemia (%) ± SD on day 5 (Plasmodium berghei): 0% | Average parasitaemia (%) ± SD on day 7 (Plasmodium berghei): 0% | Cumulative mortality on day 10 of infection (Plasmodium berghei; 12 mg/kg via oral for 4 days): 0 | Cumulative mortality on day 19 of infection (Plasmodium berghei; 12 mg/kg via oral for 4 days): 0 | Cumulative mortality on day 23 of infection (Plasmodium berghei; 12 mg/kg via oral for 4 days): 0 | Cumulative mortality on day 35 of infection (Plasmodium berghei; 12 mg/kg via oral for 4 days): 0 | Cumulative mortality on day 48 of infection (Plasmodium berghei; [1]): 0 | % Inhibition of parasitaemia on day 5 (Plasmodium berghei; 12 mg/kg via oral for 4 days): (100%) | % Inhibition of parasitaemia on day 7 (Plasmodium berghei; 12 mg/kg via oral for 4 days): (100%) | Suppression of the acute parasitaemia of treated animals (Plasmodium berghei; 12 mg/kg via oral): 100% | Parasitaemia at late follow-up: negative or recrudescence (Plasmodium berghei; 12 mg/kg via oral): remained negative | Inhibiting concentration (IC) 40%, Experiment 1 (P. falciparum (W2); [2]): 0.83 ng/mL | Inhibiting concentration (IC) 50%, Experiment 1 (P. falciparum (W2); [2]): 1.03 ng/mL | Inhibiting concentration (IC) 80%, Experiment 1 (P. falciparum (W2); [2]): 1.85 ng/mL | Inhibiting concentration (IC) 95%-100%, Experiment 1 (P. falciparum (W2); [2]): 4.07 ng/mL | Inhibiting concentration (IC) 40%, Experiment 2 (P. falciparum (W2); [3]): 0.46 ng/mL | Inhibiting concentration (IC) 50%, Experiment 2 (P. falciparum (W2); [3]): 0.8 ng/mL | Inhibiting concentration (IC) 80%, Experiment 2 (P. falciparum (W2); [3]): 1.5 ng/mL | Inhibiting concentration (IC) 95%-100%, Experiment 2 (P. falciparum (W2); [3]): ≧5 ng/ml

OC(c1cc(C(F)(F)F)nc2c(C(F)(F)F)cccc12)C1CCCCN1 (stereo not drawn) [C, mefloquine]
Average parasitaemia (%) ± SD on day 5 (Plasmodium berghei): 0% | Average parasitaemia (%) ± SD on day 7 (Plasmodium berghei): 0% | Cumulative mortality on day 10 of infection (Plasmodium berghei; 12 mg/kg via oral for 4 days): 0 | Cumulative mortality on day 19 of infection (Plasmodium berghei; 12 mg/kg via oral for 4 days): 0 | Cumulative mortality on day 23 of infection (Plasmodium berghei; 12 mg/kg via oral for 4 days): 0 | Cumulative mortality on day 35 of infection (Plasmodium berghei; 12 mg/kg via oral for 4 days): 0 | Cumulative mortality on day 48 of infection (Plasmodium berghei; [1]): 0 | % Inhibition of parasitaemia on day 5 (Plasmodium berghei; 12 mg/kg via oral for 4 days): (100%) | % Inhibition of parasitaemia on day 7 (Plasmodium berghei; 12 mg/kg via oral for 4 days): (100%) | Suppression of the acute parasitaemia of treated animals (Plasmodium berghei; 12 mg/kg via oral): 100% | Parasitaemia at late follow-up: negative or recrudescence (Plasmodium berghei; 12 mg/kg via oral): remained negative | Inhibiting concentration (IC) 40%, Experiment 1 (P. falciparum (W2); [2]): 0.93 ng/mL | Inhibiting concentration (IC) 80%, Experiment 1 (P. falciparum (W2); [2]): 12.9 ng/mL | Inhibiting concentration (IC) 95%-100%, Experiment 1 (P. falciparum (W2); [2]): ≧50 ng/ml | Inhibiting concentration (IC) 40%, Experiment 2 (P. falciparum (W2); [3]): 2.8 ng/mL | Inhibiting concentration (IC) 80%, Experiment 2 (P. falciparum (W2); [3]): ≧5 ng/ml | Inhibiting concentration (IC) 95%-100%, Experiment 2 (P. falciparum (W2); [3]): ≧5 ng/ml | IC50 (P. falciparum (W2); P. falciparum (W2) in vitro, Experiment 1, approximated, read-out: Inhibiting concentration (IC) 50%, Experiment 1): 1.24 ng/mL (≈ 3.28 nM) | IC50 (P. falciparum (W2); P. falciparum (W2) in vitro, Experiment 2, approximated, read-out: Inhibiting concentration (IC) 50%, Experiment 2): 3.4 ng/mL (≈ 8.99 nM)

CCN(CC)CCCC(C)Nc1ccnc2cc(Cl)ccc12 (stereo not drawn) [QC, chloroquine]
Inhibiting concentration (IC) 40%, Experiment 1 (P. falciparum (W2); [2]): 41.1 ng/mL | Inhibiting concentration (IC) 80%, Experiment 1 (P. falciparum (W2); [2]): 82.3 ng/mL | Inhibiting concentration (IC) 95%-100%, Experiment 1 (P. falciparum (W2); [2]): 277.7 ng/mL | Inhibiting concentration (IC) 40%, Experiment 2 (P. falciparum (W2); [3]): 48.2 ng/mL | Inhibiting concentration (IC) 80%, Experiment 2 (P. falciparum (W2); [3]): 133.4 ng/mL | Inhibiting concentration (IC) 95%-100%, Experiment 2 (P. falciparum (W2); [3]): ≧200 ng/ml | IC50 (P. falciparum (W2); [4]): 51.3 ng/mL (≈ 160 nM) | IC50 (P. falciparum (W2); [5]): 55.5 ng/mL (≈ 174 nM)

C[C@H]1[C@H](OC(=O)CCC(=O)O)O[C@@H]2O[C@@]3(C)CC[C@H]4[C@H](C)CC[C@@H]1[C@@]24OO3 [B, artesunate]
Average parasitaemia (%) ± SD on day 5 (Plasmodium berghei): 0% | Average parasitaemia (%) ± SD on day 7 (Plasmodium berghei): 0% | Cumulative mortality on day 10 of infection (Plasmodium berghei; 12 mg/kg via oral for 4 days): 0 | Cumulative mortality on day 19 of infection (Plasmodium berghei; 12 mg/kg via oral for 4 days): 0 | Cumulative mortality on day 23 of infection (Plasmodium berghei; 12 mg/kg via oral for 4 days): 1 | Cumulative mortality on day 35 of infection (Plasmodium berghei; 12 mg/kg via oral for 4 days): 2 | Cumulative mortality on day 48 of infection (Plasmodium berghei; [1]): 3 | % Inhibition of parasitaemia on day 5 (Plasmodium berghei; 12 mg/kg via oral for 4 days): (100%) | % Inhibition of parasitaemia on day 7 (Plasmodium berghei; 12 mg/kg via oral for 4 days): (100%) | Suppression of the acute parasitaemia of treated animals (Plasmodium berghei; 12 mg/kg via oral): 100% | Mortality during follow-up of treatment (Plasmodium berghei; 12 mg/kg via oral, follow-up of about 30 days): mortality occurred | Parasitaemia at late follow-up: negative or recrudescence (Plasmodium berghei; 12 mg/kg via oral): showed recrudescency of the parasitaemia | % parasitaemia, Average ± Sd, day 30 (Plasmodium berghei; 12 mg/kg, group average, day 30): 16.6 ± 20.4% | % parasitaemia, Average ± Sd, day 33 (Plasmodium berghei; 12 mg/kg, group average, day 33): 23.3 ± 24.3% | % parasitaemia, Average ± Sd, day 36 (Plasmodium berghei; 12 mg/kg, group average, day 36): 33.5 ± 27.4% | % parasitaemia, Average ± Sd, day 48 (Plasmodium berghei; 12 mg/kg, group average, day 48): 30 ± 21.2% | % Individual parasitaemia on day 30 (recrudescence) (Plasmodium berghei; 12 mg/kg, individual animals infected by P. berghei, day 30, † = Animal death): 0.6% and 24% and 0% and 42% | % Individual parasitaemia on day 33 (recrudescence) (Plasmodium berghei; 12 mg/kg, individual animals infected by P. berghei, day 33, † = Animal death): 5% and 40% and 0% and 48% | % Individual parasitaemia on day 36 (recrudescence) (Plasmodium berghei; 12 mg/kg, individual animals infected by P. berghei, day 36, † = Animal death): 14% and 53% and 0% | % Individual parasitaemia on day 48 (recrudescence) (Plasmodium berghei; 12 mg/kg, individual animals infected by P. berghei, day 48, † = Animal death): 30% and 0% | Inhibiting concentration (IC) 40%, Experiment 1 (P. falciparum (W2); [2]): 0.37 ng/mL | Inhibiting concentration (IC) 80%, Experiment 1 (P. falciparum (W2); [2]): 0.99 ng/mL | Inhibiting concentration (IC) 95%-100%, Experiment 1 (P. falciparum (W2); [2]): 1.54 ng/mL | Inhibiting concentration (IC) 40%, Experiment 2 (P. falciparum (W2); [3]): 0.33 ng/mL | Inhibiting concentration (IC) 80%, Experiment 2 (P. falciparum (W2); [3]): 1.3 ng/mL | Inhibiting concentration (IC) 95%-100%, Experiment 2 (P. falciparum (W2); [3]): ≧5 ng/ml | IC50 (P. falciparum (W2); [4]): 0.46 ng/mL (≈ 1.2 nM) | IC50 (P. falciparum (W2); [5]): 0.43 ng/mL (≈ 1.12 nM)
